According to patent US9410152B2, “Use of microrna molecules to influence skin pigmentation” (CHANEL PARFUMS BEAUTE, priority 2011, dated 2016):
Entries after “also recorded” stand apart in the source; their conditions may differ.

Experiments:
Assay type in all cases: cell-based, human
mRNA TYRP1 = assay: qRT-PCR mRNA expression of TYRP1; conditions: MNT-1 cells, 50 nM mimetic, day 12, relative to cel-miR-239b, ΔΔCt
Method: (§1) 4×10^5 MNT-1 cells were seeded per well in a 6-well plate (#353046, Falcon) on day-1. On day 0, the cells were transfected with 50 nM of mimetic of the miRNAs (hsa-mir-137 # C-300604-07-005, hsa-mir-7 # C-300547-05-0005, hsa-mir-330-5p # C-301082-01-0005, negative control # NC-002000-01-05, Dharmacon), using 5 μL of Lipofectamine 2000 (#1668-019, Invitrogen). On day 1, the medium was changed. On day 3, the cells were trypsinized and seeded at 4×10^5 cells per well. On day 4, the cells were transfected again with 50 nM of mimetic of the miRNAs (see day 0). On day 5, the medium was changed. On day 7, the cells were trypsinized and seeded at 4×10^5 cells per well. On day 8, the cells were transfected with 50 nM of mimetic of the miRNAs (see day 0). On day 9, the medium was changed. On day 10, the cells were trypsinized and divided into two (from one by six wells to two by six wells). On day 12, one six-well plate was used for lysis of the RNA and the other for lysis of the proteins. As positive control of depigmentation, MNT-1 cells were incubated with 3.5 mM of kojic acid (Sigma K3125-5G) for 12 days. The cells were distributed as described and the kojic acid was renewed with the medium every 4 days. The percentage inhibition of the kojic acid is of the order of 10%. 700 μL of Qiazol lysis buffer (Qiagen) was added per well of a six-well dish after washing the cells twice with PBS. The total RNA was isolated using the miRNeasy Mini kit (Qiagen) according to the manufacturer's protocol. The total RNA was eluted in 30 μl of water without RNAse. The concentration of RNA was measured using the NanoVue spectrophotometer (GE Healthcare). 1 μg of total RNA was reverse-transcribed using the MLV RT-Enzyme system (Invitrogen) in 60 μL of reaction to produce the corresponding cDNA. […] The concentrations of primers and the sequences are given in Table 5 below: The relative quantity was evaluated using the ΔΔCt comparative method. Briefly, this method compares the quantity of expression of the target gene relative to an endogenous control TBP, within a sample for normalizing the expression. […]

mRNA MLANA = assay: qRT-PCR mRNA expression of MLANA; conditions: MNT-1 cells, 50 nM mimetic, day 12, relative to cel-miR-239b, ΔΔCt
Method: as §1

mRNA MITF-M = assay: qRT-PCR mRNA expression of MITF-M; conditions: MNT-1 cells, 50 nM mimetic, day 12, relative to cel-miR-239b, ΔΔCt
Method: as §1

MLANA = assay: Western blot of MLANA protein; conditions: MNT-1 cells, 50 nM mimetic, day 12
Method: (§2) 4×10^5 MNT-1 cells were seeded per well in a 6-well plate (#353046, Falcon) on day-1. On day 0, the cells were transfected with 50 nM of mimetic of the miRNAs (hsa-mir-137 # C-300604-07-005, hsa-mir-7 # C-300547-05-0005, hsa-mir-330-5p # C-301082-01-0005, negative control # NC-002000-01-05, Dharmacon), using 5 μL of Lipofectamine 2000 (#1668-019, Invitrogen). On day 1, the medium was changed. On day 3, the cells were trypsinized and seeded at 4×10^5 cells per well. On day 4, the cells were transfected again with 50 nM of mimetic of the miRNAs (see day 0). On day 5, the medium was changed. On day 7, the cells were trypsinized and seeded at 4×10^5 cells per well. On day 8, the cells were transfected with 50 nM of mimetic of the miRNAs (see day 0). On day 9, the medium was changed. On day 10, the cells were trypsinized and divided into two (from one by six wells to two by six wells). On day 12, one six-well plate was used for lysis of the RNA and the other for lysis of the proteins. As positive control of depigmentation, MNT-1 cells were incubated with 3.5 mM of kojic acid (Sigma K3125-5G) for 12 days. The cells were distributed as described and the kojic acid was renewed with the medium every 4 days. The percentage inhibition of the kojic acid is of the order of 10%. […] The concentration of proteins was determined with the BCA Protein Assay (ThermoFisher). […]

MITF = assay: Western blot of MITF protein; conditions: MNT-1 cells, 50 nM mimetic, day 12
Method: as §2

TYR proteins = assay: Western blot of TYR protein; conditions: MNT-1 cells, 50 nM mimetic, day 12
Method: as §2

Substance	levels of mRNA TYRP1 (mRNA TYRP1)	levels of mRNA TYRP1 (mRNA TYRP1; listed as miR-137)	levels of mRNA MLANA (mRNA MLANA)	levels of mRNA MLANA (mRNA MLANA; listed as miR-137)	levels of mRNA MITF-M (mRNA MITF-M)	levels of mRNA MITF-M (mRNA MITF-M; listed as miR-137)	level of protein MLANA (Western blot) (MLANA)	level of protein MITF (Western blot) (MITF)	levels of mRNA TYRP1 (mRNA TYRP1; listed as miR-7)	levels of mRNA MLANA (mRNA MLANA; listed as miR-7)	levels of mRNA MITF-M (mRNA MITF-M; listed as miR-7)	content of TYR proteins (Western blot) (TYR proteins)
hsa-miR-137: mimetic of miRNA hsa-mir-137 (Dharmacon C-300604-07-005); mature sequence SEQ ID NO: 3 (UUAUUGCUUAAGAAUACGCGUAG; commercial mimic, chemistry not given here; listed as Homo sapiens)	significantly reduced	considerably reduced	significantly reduced	considerably reduced	significantly reduced	considerably reduced	eliminates	eliminates				
hsa-miR-7: mimetic of miRNA hsa-mir-7 (Dharmacon C-300547-05-0005); mature hsa-miR-7-5p sequence SEQ ID NO: 2 (UGGAAGACUAGUGAUUUUGUUGU; commercial mimic, chemistry not given here; listed as Homo sapiens)								decreases	appears to reduce; also recorded: slightly reduced	appears to reduce; also recorded: slightly reduced	appears to reduce; also recorded: slightly reduced	decreases
hsa-miR-330-5p: mimetic of miRNA hsa-mir-330-5p (Dharmacon C-301082-01-0005); mature sequence 5'-UCUCUGGGCCUGUGUCUUAGGC-3' (SEQ ID NO: 1) (UCUCUGGGCCUGUGUCUUAGGC; mimic duplex, passenger strand not given here; listed as Homo sapiens)												decreased
